Measured values taken from patent publication US20220339257A1, “METHODS TO INCREASE THE SENSITIVITY AND REVERSING THE RESISTANCE TO DRUGS” (Biomarker Strategies, LLC, priority 2019, published 2022).

Tests used:
Type in all cases: cell-based
Ca-922 cell line = assay: HoPI live cell staining; design: concentration or dose not given beside the values; conditions: 24 hours
Excerpt: (§1) A double stain of Hoechst 33342 and propidium iodide allows for the determination of cell viability with high specificity and low background noise, as compared to trypan blue staining. Hoechst 33342 is a cell permeable blue fluorescent nuclear stain which will stain all cell types. Propidium iodide is a cell impermeable red fluorescent nuclear stain that will only bind to the nuclei of cells with compromised membranes (dead cells). The staining can be performed rapidly on live cell suspensions within 15 minutes. 25 uL of 4× Hoechst 33342 Solution (40 ug/mL) and 25 uL of 4×Propidium Iodide Solution are added to 50 uL of cell suspension. The suspension was gently mixed 10 times and 50 uL was immediately transferred to a microfluidic cell counting chip. A 365 nm LED was used to excite both Hoechst 33342 and propidium iodide. Images of the cells were captured using a 10× objective lens on an Olympus microscope using a Canon EOS 6D camera using an ISO of 800 and an exposure of 2 seconds; both JPEG and RAW images were saved for analysis. The blue channel was used to measure the total number of cells and the red channel was used to measure the number of dead cells. Cell counting was performed automatically by the Image Pro software (Media Cybernetics, Inc).
MTA and EM effects on apoptosis were measured by Hoechst-Propidium Iodide staining (HoPI). For the assay, cells were seeded in 6-well plates at 400K cells per well, in 2 mL of 10% FBS-containing media and incubated for 24 hours. At 24 hours, a 1 nM to […] range of MTA and/or 1 ng/mL to 1 mg/mL range of EM doses was added and incubated for 24 hours. After 24 hours incubation respective cells' media was collected, added the 1× HBSS wash from the plate in the respective tube. Adherent cells were detached by treating with Accutase for 6 minutes and collected in respective tubes. All samples were centrifuged for 5 minutes at 1200 RPM. The cell pellets were resuspended in PBS and centrifuged again for 5 minutes at 1200 RPM. Cell pellets were resuspended in 200 uL of PBS and mixed properly to get single cell suspension. 50 uL of cell suspension was added into separate tubes having 10 uL of a 2× HOPI solution (20 ug/mL Hoechst 33342 and 20 ug/mL propidium iodide solution) to get a final concentration of Hoechst 33342 and propidium iodide to […]. Make up the volume to 100 uL with 40 uL of PBS. Samples were mixed thoroughly for even cell staining and the microfluidsic chip wells were each filled with 10 uL of sample. Chips were then incubated in the dark for 20 minutes. A 365 nm LED was used to excite both Hoechst 33342 and propidium iodide as they were visualize under a microscope. Cell images were captured using a 10× objective lens on an Olympus microscope using a Canon EOS 6D camera with an ISO of 800 and an exposure of 2 seconds; both JPEG and RAW images were saved for analysis. The blue channel was used to measure the total number of cells and the red channel was used to measure the number of dead cells. For image analysis, a copy of the image was created and converted directly into an 8-bit gray scale image. A threshold was placed on the image to create a binary mask; the threshold level was 20 intensity units out of 255 intensity units. Next, a particle analysis algorithm was applied to the binary mask and a set of cellular regions (between 100 to 800 cellular regions per image) was created. The original image was then split into red, green and blue channels. The area, mean intensity, standard deviation of the mean intensity, minimum intensity, maximum intensity and perimeter were measured for each cellular region in the red channel and also in the blue channel. The green channel was discarded. To discern between live and dead cells, the maximum intensity in the red channel was used with a threshold of 100 intensity units. Double plots were created using the intensity of the blue channel (X-axis) and the intensity of the red channel (Y-axis). […]

RPMI-1975 = assay: HoPI live cell staining; conditions: 24 hours
Excerpt: as §1
MTA and EM effects on apoptosis were measured by Hoechst-Propidium Iodide staining (HoPI). For the assay, cells were seeded in 6-well plates at 400K cells per well, in 2 mL of 10% FBS-containing media and incubated for 24 hours. At 24 hours, a 1 nM to […] range of MTA and/or 1 ng/mL to 1 mg/mL range of EM doses was added and incubated for 24 hours. After 24 hours incubation respective cells' media was collected, added the 1× HBSS wash from the plate in the respective tube. Adherent cells were detached by treating with Accutase for 6 minutes and collected in respective tubes. All samples were centrifuged for 5 minutes at 1200 RPM. […] The area, mean intensity, standard deviation of the mean intensity, minimum intensity, maximum intensity and perimeter were measured for each cellular region in the red channel and also in the blue channel. […]

[1] = tested on: clinical sample; HS2170 and Calu-6 cells; assay: HoPI assay (Hoechst 33342 and propidium iodide); conditions: Osimertinib in combination with EM2
Excerpt: as §1

| Molecule | reduction in the number of live cells (HoPI) (Ca-922 cell line; osimertinib and TNFa in combination) [%] | reduction in the number of live cells (HoPI) (Ca-922 cell line; single agent) [%] | reduction in live cells (HoPI) (RPMI-1975; GSK458 and TNFa in combination) [%] | reduction in live cells (HoPI) (RPMI-1975; single agent) [%] | cell death (HoPI assay) [1] | reduction in the number of live cells (HoPI) (Ca-922 cell line; GSK458 and IFNa in combination) [%] |
| --- | --- | --- | --- | --- | --- | --- |
| tumor necrosis factor-alpha [EM2] | 67 | 21 | 68 | 8 | increase in cell death | – |
| interferon-alpha-1 (protein, UniProt P01562 24-189, looked up, enhancer molecule, cytokine purchased from Sigma) Interferon alpha-1/13: CDLPETHSLDNRRTLMLLAQMSRISPSSCLMDRHDFGFPQEEFDGNQFQKAPAISVLHELIQQIFNLFTTKDSSAAWDEDLLDKFCTELYQQLNDLEACVMQEERVGETPLMNADSILAVKKYFRRITLYLTEKKYSPCAWEVVRAEIMRSLSLSTNLQERLRRKE | – | 24 | – | – | – | 26 |
